This is an account of results in patent EP4671246A1, “6-ALKOXYPYRAZOLOPYRIMIDINE COMPOUND AND PHARMACEUTICAL USE THEREOF” (Japan Tobacco Inc., priority 2023, dated 2024).

Structures are written as SMILES.

A word on the IC50: it is the concentration needed to halve the response being measured. Read a low IC50 as inhibition by little substance.

T1 sequence (Q96P20 whole entry): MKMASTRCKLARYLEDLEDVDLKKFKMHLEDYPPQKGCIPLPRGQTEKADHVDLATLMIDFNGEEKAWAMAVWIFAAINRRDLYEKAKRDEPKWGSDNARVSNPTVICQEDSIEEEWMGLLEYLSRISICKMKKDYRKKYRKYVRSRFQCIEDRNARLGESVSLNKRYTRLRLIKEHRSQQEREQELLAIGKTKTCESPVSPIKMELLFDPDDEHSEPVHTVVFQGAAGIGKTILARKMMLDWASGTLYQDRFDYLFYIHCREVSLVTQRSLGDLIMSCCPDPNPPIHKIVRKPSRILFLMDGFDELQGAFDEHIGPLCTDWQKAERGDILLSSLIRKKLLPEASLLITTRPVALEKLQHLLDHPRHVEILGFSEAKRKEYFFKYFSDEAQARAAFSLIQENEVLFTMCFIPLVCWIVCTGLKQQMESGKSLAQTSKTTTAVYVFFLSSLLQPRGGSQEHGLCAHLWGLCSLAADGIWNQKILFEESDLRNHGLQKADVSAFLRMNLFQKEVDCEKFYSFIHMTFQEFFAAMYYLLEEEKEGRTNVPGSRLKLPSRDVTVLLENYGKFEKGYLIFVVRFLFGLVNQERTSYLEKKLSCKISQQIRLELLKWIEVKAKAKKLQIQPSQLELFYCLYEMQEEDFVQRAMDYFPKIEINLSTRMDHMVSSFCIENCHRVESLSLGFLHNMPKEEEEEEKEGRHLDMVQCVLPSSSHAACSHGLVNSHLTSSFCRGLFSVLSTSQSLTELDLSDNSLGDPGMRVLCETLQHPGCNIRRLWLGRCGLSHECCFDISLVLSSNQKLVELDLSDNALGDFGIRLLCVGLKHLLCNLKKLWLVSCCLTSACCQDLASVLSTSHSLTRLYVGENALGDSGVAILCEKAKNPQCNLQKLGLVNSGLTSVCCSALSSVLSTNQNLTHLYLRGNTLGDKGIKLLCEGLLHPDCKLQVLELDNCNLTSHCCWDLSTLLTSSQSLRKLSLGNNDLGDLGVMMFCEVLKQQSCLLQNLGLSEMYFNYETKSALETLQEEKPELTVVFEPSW

The test has as its target T1, NLRP3 inflammasome (Homo sapiens, UniProt Q96P20).
T1 construct: host or cells: THP1-Null cells (PMA-differentiated, LPS-primed, nigericin-stimulated)
As to the kind of experiment: Evaluation of NLRP3 inflammasome inhibitory activity (inhibition of IL-1β production in THP1-Null cells). It counts as cell-based. Conditions: 0.5 µmol/L PMA overnight, 1 µg/mL Lipopolysaccharides 3 hours, Nigericin 7.5 µmol/L 1.5 hours, AlphaLISA Human IL-1β. How it is done: The NLRP3 inflammasome inhibitory activity of test compounds were evaluated on the basis of the inhibitory activity of the IL-1β production in THP1-Null cells (Product Number: thp-null, InvivoGen). Cells were maintained for culture in RPMI-1640 media containing 10% (v/v) fetal bovine serum, 25 mmol/L HEPES, 100 U/mL penicillin, 100 µg/mL streptomycin, 100 µg/mL normocin, and 200 µg/mL hygromycin B (set at 37°C, 5% CO2/95% air) .
Cells were suspended with media for assay containing 0.5 µmol/L PMA (RPMI-1640 media containing 10% (v/v) fetal bovine serum, 100 U/mL penicillin, and 100 µg/mL streptomycin), and the suspended cells were seeded on Corning (registered trademark) 384-well Flat Clear Bottom Black Polystyrene TC-treated Microplates (25,000 cells/25 µL/well), followed by incubation (set at 37°C, 5% CO2/95% air) overnight. The supernatant of the culture was removed, and thereto was added media for assay (25 µL/well) containing 1 µg/mL Lipopolysaccharides (Product Number: L2654, Sigma-Aldrich (registered trademark)). Then, the culture was further incubated for 3 hours (set at 37°C, 5% CO2/95% air) . The supernatant of the culture was removed. Then, a vehicle solution prepared from Opti-MEM (trademark) medium (Product Number: 31985-070, Invitrogen) was added to blank-setting wells and control-setting wells (20 µL/well), followed by incubation for 15 minutes (set at 37°C, 5% CO2/95% air). A solution containing a test compound (20 µL/well) was added to test compound-setting wells. Further, Opti-MEM (trademark) medium containing Nigericin (Product Number: N7143, Sigma-Aldrich (registered trademark)) was added to the control-setting wells and test compound-setting wells (5 µL/well), followed by incubation for 1.5 hours (set at 37°C, 5% CO2/95% air). The final concentration of Nigericin was adjusted to be 7.5 µmol/L. 5 µL/well of Opti-MEM (trademark) medium was added to the blank-setting wells. The supernatant of the culture was cryonically stored (set at -20°C) until measurement of IL-1β.
The amount of IL-1β in the culture supernatant was quantitated with AlphaLISA (registered trademark) Human IL-1β Detection Kit (Product Number: AL220C, Perkin Elmer). Fluorescence intensity was measured with a microplate reader EnSpier (Model number: 2300-00J, Perkin Elmer) or EnSight (Model number: HH34000000, Perkin Elmer) according to procedure manuals attached thereto. Inhibition rates of the test compound-setting wells were calculated on the basis of 100% for the blank-setting wells and 0% for the control-setting wells. IC50 values (i.e., 50% inhibitory concentrations) of the test compounds were calculated by logistic regression analysis.
(Bead proximity is the source of the signal in Alpha formats.)
As for `COc1nc2nn(-c3ccc(Br)cc3C(O)C3CC3)cc2c(=O)[nH]1` (racemic) [Example 53], the IC50 is 0.16 µM. The figure for `Cc1cc(Br)cc(C)c1-n1cc2c(=O)[nH]c(OCC(C)(C)O)nc2n1` [Example 21] is 0.074 µM. `Cc1cc(Br)cc(C)c1-n1cc2c(=O)[nH]c(OCC3(C#N)CC3)nc2n1` [Example 17] yielded an IC50 of 0.073 µM. On to `CCOc1nc2nn(-c3c(C)cc(OC(F)F)cc3C)cc2c(=O)[nH]1` [Example 54], for which the IC50 amounted to 0.013 µM.

The compound `COc1ccc(-n2cc3c(=O)[nH]c(OC)nc3n2)c(C2CC2)c1` [Example 48] had an IC50 of 0.19 µM.

In turn, `Cc1cc(C)c(-n2cc3c(=O)[nH]c(OCC4CC4)nc3n2)c(C)c1` [Example 3] displayed an IC50 of 0.009 µM. Compared with the last compound, the IC50 is about 21-fold lower. Turning to `Cc1cc(C)c(-n2cc3c(=O)[nH]c(OC(C)C)nc3n2)c(C)c1` [Example 5], the IC50 amounted to 0.034 µM.

In the case of `COc1nc2nn(-c3c(C)cc(C4CC4)cc3C)c(I)c2c(=O)[nH]1` [Example 79], the IC50 is 0.008 µM.

As to `Cc1cc(Br)cc(C)c1-n1cc2c(=O)[nH]c(OCCCS(=O)(=O)C(C)C)nc2n1` [Example 58], the IC50 worked out at 0.006 µM. Under `COc1nc2nn(-c3ccc(OC(F)F)cc3C(F)(F)F)cc2c(=O)[nH]1` [Example 63] stands 0.08 µM. Under `COc1nc2nn(-c3c(C)cc(OC(F)F)cc3Cl)cc2c(=O)[nH]1` [Example 78] stands 0.04 µM; under `COc1nc2nn(-c3c(C)cc(Br)cc3C)cc2c(=O)[nH]1` [Example 12, 2-(4-bromo-2,6-dimethylphenyl)-6-methoxy-2,5-dihydro-4H-pyrazolo[3,4-d]pyrimidin-4-one], 0.009 µM. The figure for `COc1nc2nn(-c3ccc(Br)cc3C(F)(F)F)cc2c(=O)[nH]1` [Example 43] is 0.038 µM; for `Cc1cc(Br)cc(C)c1-n1cc2c(=O)[nH]c(OCCC3CCOCC3)nc2n1` [Example 72] it is 0.027 µM.

As for `Cc1cc(Br)cc(C)c1-n1cc2c(=O)[nH]c(OCCCS(=O)(=O)C(C)(C)C)nc2n1` [Example 64], the IC50 was 0.007 µM. In turn, `COc1nc2nn(-c3c(C)cc(C4CC4(F)F)cc3C)cc2c(=O)[nH]1` (racemic) [Example 120] yielded an IC50 of 0.088 µM. For `COc1nc2nn(-c3c(C)cc(Br)c(OC)c3C)cc2c(=O)[nH]1` [Example 96], the half-maximal inhibitory concentration (IC50) stood at 0.43 µM. In the case of `Cc1cc(Br)cc(C)c1-n1cc2c(=O)[nH]c(OCCCCO)nc2n1` [Example 113], the IC50 was determined as 0.014 µM. The figure for `Cc1cc(C2CC2)cc(C)c1-n1cc2c(=O)[nH]c(OCCCS(=O)(=O)C(C)(C)C)nc2n1` [Example 74] is 0.003 µM; for `Cc1cc(Br)cc(C)c1-n1cc2c(=O)[nH]c(OC3CCOCC3)nc2n1` [Example 16] it is 0.025 µM; for `COc1nc2nn(-c3c(C)cc(Br)cc3CF)cc2c(=O)[nH]1` [Example 115] it is 0.013 µM. Under `COCc1cc(Br)cc(C)c1-n1cc2c(=O)[nH]c(OC)nc2n1` [Example 88] stands 0.044 µM; under `COCc1cc(OC(F)F)cc(C)c1-n1cc2c(=O)[nH]c(OC)nc2n1` [Example 110], 0.21 µM; under `COc1nc2nn(-c3ccc(C4CC4)cc3C(F)F)cc2c(=O)[nH]1` [Example 60], 0.016 µM.

For `Cc1cc(Br)cc(C)c1-n1cc2c(=O)[nH]c(OC[C@@H]3CCOC3)nc2n1` [Example 112], the IC50 was determined as 0.038 µM. In turn, `COc1nc2nn(-c3c(C)cc(OC(F)(F)F)cc3C)cc2c(=O)[nH]1` [Example 61] yielded an IC50 of 0.069 µM. For the compound `COc1nc2nn(-c3c(C)cc(C4CC4)cc3C)cc2c(=O)[nH]1` [Example 14], 0.008 µM corresponded to half-maximal inhibition (IC50). Regarding `CCOc1cc(C)c(-n2cc3c(=O)[nH]c(OC)nc3n2)c(C)c1` [Example 94], it took 0.2 µM to reach half-maximal inhibition (IC50). The figure for `CCc1cc(C(C)(F)F)cc(C)c1-n1cc2c(=O)[nH]c(OC)nc2n1` [Example 89] is 0.024 µM; for `COc1nc2nn(-c3c(C)cc(OC)c(Br)c3C)cc2c(=O)[nH]1` [Example 100] it is 0.69 µM. For the compound `COCc1cc(OC)cc(C)c1-n1cc2c(=O)[nH]c(OC)nc2n1` [Example 93], the IC50 came out at 0.23 µM. Consider `Cc1cc(C)c(-n2cc3c(=O)[nH]c(OCC(F)(F)F)nc3n2)c(C)c1` [Example 6], for which 0.18 µM corresponded to half-maximal inhibition (IC50). This IC50 and that of the compound before are within 1.5-fold of each other. Under `COc1nc2nn(-c3c(C)cc(C4CC4)cc3OC)cc2c(=O)[nH]1` [Example 29] stands 0.054 µM; under `Cc1cc(Br)cc(C)c1-n1cc2c(=O)[nH]c(OC[C@H]3CCOC3)nc2n1` [Example 111], 0.05 µM; under `CCc1c2c(=O)[nH]c(OC)nc2nn1-c1c(C)cc(OC)cc1C` [Example 91], 0.14 µM. As for `Cc1cc(Br)cc(C)c1-n1cc2c(=O)[nH]c(OCCC(C)(C)C#N)nc2n1` [Example 109], the IC50 came to 0.067 µM. In the case of `COc1nc2nn(-c3ccc(C4CC4)cc3C3CC3)cc2c(=O)[nH]1` [Example 56], the IC50 was found to be 0.018 µM. Against the preceding compound, the IC50 is about 3.7-fold lower. `COc1nc2nn(-c3ccc(Br)cc3C3CC3)cc2c(=O)[nH]1` [Example 47] gave an IC50 of 0.053 µM.

In turn, `COc1nc2nn(-c3ccc(Cl)c(C)c3C)cc2c(=O)[nH]1` [Example 32] registered an IC50 of 0.76 µM. Compared with the last compound, the IC50 is about 14-fold higher. Under `COCc1cc(C2CC2)ccc1-n1cc2c(=O)[nH]c(OC)nc2n1` [Example 42] stands 0.063 µM.

Regarding `CCc1cc(C2CC2)ccc1-n1cc2c(=O)[nH]c(OC)nc2n1` [Example 80], 0.017 µM corresponded to half-maximal inhibition (IC50). This IC50 lies about 3.7-fold lower than the previous one. Under `COc1nc2nn(-c3c(Cl)cc(F)cc3OC)cc2c(=O)[nH]1` [Example 77] stands 2.4 µM. As for `CCOc1nc2nn(-c3c(C)cc(C)cc3C)cc2c(=O)[nH]1` [Example 9], the IC50 was determined as 0.023 µM. Compared with the last compound, the IC50 is about 100-fold lower. The figure for `Cc1cc(C2CC2)cc(C)c1-n1cc2c(=O)[nH]c(OC3CCS(=O)(=O)CC3)nc2n1` [Example 46] is 0.033 µM; for `COc1nc2nn(-c3ccc(C4CC4)cc3OC)cc2c(=O)[nH]1` [Example 40] it is 0.049 µM. On to `Cc1cc(Br)cc(C)c1-n1cc2c(=O)[nH]c(OC(C)C)nc2n1` [Example 33], for which the IC50 was 0.024 µM.

As for `COc1nc2nn(-c3c(C)cc(F)cc3C)cc2c(=O)[nH]1` [Example 90], the concentration for half-maximal inhibition (IC50) was found to be 0.74 µM. Take `COc1ccc(-n2cc3c(=O)[nH]c(OC)nc3n2)c(C(F)(F)F)c1` [Example 24]: the IC50 was found to be 0.053 µM. `COc1cc(C)c(-n2cc3c(=O)[nH]c(OC)nc3n2)c(C)c1` [Example 13, 6-methoxy-2-(4-methoxy-2,6-dimethylphenyl)-2,5-dihydro-4H-pyrazolo[3,4-d]pyrimidin-4-one] had an IC50 of 0.022 µM. Compound `Cc1cc(C2CC2)cc(C)c1-n1cc2c(=O)[nH]c(OCC(F)(F)CO)nc2n1` [Example 106] came in with an IC50 of 0.029 µM. The IC50 values of the last two compounds are within 1.5-fold of each other.

Regarding `COc1nc2nn(-c3c(C)cc(Br)cc3C)cc2c(=O)n1C` [Example 23], the IC50 was found to be 0.68 µM.

The compound `Cc1cc(Br)cc(C)c1-n1cc2c(=O)[nH]c(OCCCS(C)(=O)=O)nc2n1` [Example 35] yielded an IC50 of 0.007 µM.

For the compound `COc1nc2nn(-c3c(C)cc(Cl)cc3C)cc2c(=O)[nH]1` [Example 57], the IC50 stood at 0.058 µM.

`COc1nc2nn(-c3c(Cl)cc(C(F)(F)F)cc3OC)cc2c(=O)[nH]1` [Example 15] came in with an IC50 of 1.3 µM. In turn, `Cc1cc(Br)cc(C)c1-n1cc2c(=O)[nH]c(OC3COC3)nc2n1` [Example 121] yielded an IC50 of 2.4 µM.
